Values of other authors in patent US11324965B2, “Non-invasive energy upconversion methods and systems” (IMMUNOLIGHT, LLC., priority 2009, dated 2022).
Where two headings read alike, the source gives them in different places. Square brackets hold non-standard residues; d marks the D form. Peptide text beside a SMILES is read from it. Bpa = N[CH](Cc1ccc(C(=O)c2ccccc2)cc1)C(=O)O; 2Nal = N[CH](Cc1ccc2ccccc2c1)C(=O)O; Aib = CC(C)(N)C(=O)O

Key:
[1] = for KSSET (Average): average over λex 224, 266, 280 nm
[2] = orange juice, high UV exposure of 100 mJ/cm^2
tumors = conditions: in vivo

| duration of skin photosensitivity (in vivo) | degradation of Vitamin C [2] [%] | duration of skin photosensitivity (clinical use) [h] | Structure (SMILES) | KSSET (Average) [1] | KSSET ([1]; λex 224 nm) | KSSET ([1]; λex 266 nm) | KSSET ([1]; λex 280 nm) | selectivity for tumors compared to normal tissues (tumors) |
| --- | --- | --- | --- | --- | --- | --- | --- | --- |
| – | – | – | CC1NC(=O)C(C)(C)NC(=O)C(Cc2ccc(C(=O)c3ccccc3)cc2)NC(=O)C(C)(C)NC(=O)C(C)NC(=O)C(C)(C)NC(=O)C(Cc2ccc3ccccc3c2)NC(=O)C(C)(C)NC1=O (centres unmarked) [Compound 1A] (cyclo([Aib][2Nal][Aib]A[Aib][Bpa][Aib]A); configuration not given here) | 3.67 × 10^7 S^−1 | 3.8 × 10^7 S^−1 | 3.6 × 10^7 S^−1 | 3.6 × 10^7 S^−1 | – |
| – | – | – | C=C(NC(C)(C)C(=O)NC(Cc1ccc2ccccc2c1)C(=O)NC(C)(C)C(=O)NC(Cc1ccc(C(=O)c2ccccc2)cc1)C(=O)NC(C)(C)C(=O)NC(C)C(=O)O)C(C)NC(=O)[C@@H](C)N (single isomer, unassigned) [Compound 2A] | 3 × 10^7 S^−1 | 2.1 × 10^7 S^−1 | 3.7 × 10^7 S^−1 | 3.2 × 10^7 S^−1 | – |
| approximately 2 weeks | – | – | Oc1cccc(-c2c3nc(c(-c4cccc(O)c4)c4ccc([nH]4)c(-c4cccc(O)c4)c4nc(c(-c5cccc(O)c5)c5ccc2[nH]5)CC4)C=C3)c1 [Foscan, Tetra (m-hydroxyphenyl) chlorin] | – | – | – | – | – |
| – | – | – | CC(NC(=O)C(C)(C)NC(=O)C(Cc1ccc(C(=O)c2ccccc2)cc1)NC(=O)C(C)(C)NC(=O)C(C)NC(=O)C(C)(C)NC(=O)C(Cc1ccc2ccccc2c1)NC(=O)C(C)(C)N)C(=O)O (centres unmarked) [Compound 1B] (H-[Aib][2Nal][Aib]A[Aib][Bpa][Aib]A-OH; configuration not given here) | 1.87 × 10^8 S^−1 | 2.44 × 10^8 S^−1 | 1.8 × 10^8 S^−1 | 1.36 × 10^8 S^−1 | – |
| – | 17 | – | O=C1O[C@H]([C@@H](O)CO)C(O)=C1O [Vitamin C] | – | – | – | – | – |
| – | – | – | C=C(NC(C)(C)C(=O)NC(Cc1ccc2ccccc2c1)C(=O)NC(C)(C)C(=O)NC(Cc1ccc(C(=O)c2ccccc2)cc1)C(=O)NC(C)(C)C(=O)NC(C)C(=O)O)C(C)NC(=O)[C@@H](C)N (single isomer, unassigned) [Compound 2B] | 3.9 × 10^7 S^−1 | 3.1 × 10^7 S^−1 | 3.9 × 10^7 S^−1 | 4.7 × 10^7 S^−1 | – |
| – | – | 24 to 48 | CC(=O)[O-].CC(=O)[O-].CCc1c(CC)c2cc3nc(cnc4cc(OCCOCCOCCOC)c(OCCOCCOCCOC)cc4ncc4nc(cc1[n-]2)C(CCCO)=C4C)C(C)=C3CCCO.O.[Lu+3] [Lutetium texaphryin, Motexafin lutetium] | – | – | – | – | one of the greatest reported selectivities for tumors |
